The test system of series [1] is HL-60. Put plainly: MTT assay, cell viability. It counts as cell-based. The conditions noted are these: Homo sapiens; HL-60, AML, 72 hours; read-out: IC50 (μM, Mean ± SD). Here is the method: (§1) Cells were cultured in RPMI-1640 (RT-112, KMS-11, SNU-16, HT-29, HCT-116, NCI—H520, Hep3B, PLC/PRF/5, HL-60, MOLT-4) and DMEM (HepG2, MCF-7, MDA-MB-231) with 10% FBS (v/v) and Penicillin/Streptomycin (100 U/ml). FU-DDLS-1 cell line was maintained in DMEM:F12 medium with 10% FBS. LiSa-2 cell line was maintained in IMDM/RPMI-1640 in a 4:1 ratio supplemented with 10% FBS, 2 mmol/L L-glutamine, and 0.1 mg/mL gentamicin. Human umbilical vein endothelial cells (HUVECs) were grown to confluence on 1% collagen, and maintained in 90% Medium 199 with 25 U/ml heparin, 30 μg/ml endothelial cell growth supplement (ECGS) adjusted to contain 1.5 g/L sodium bicarbonate, 10% FBS and Penicillin/Streptomycin (100 U/ml) Cultures were maintained at 37° C. in a humidified atmosphere of 5% CO2/95% air.
(§2) Cells were seeded in 96-well plates (5,000 cells/well) and incubated overnight for attachment, and were then treated with indicated agents in 10% FBS-supplemented medium for 72 hours. The medium was replaced with MTT (0.5 mg/mL) at 37° C. for 1 hours. After removal of medium, the cells were lysed with 100 μL per well dimethyl sulfoxide (DMSO), and absorbance at 550 nm was measured with microplate reader. The relative cell viability (%) was expressed as a percentage relative to a DMSO control cells.
In general terms: Tetrazolium assays rely on reduction of a dye to a coloured formazan, in cell work by metabolically active cells.

Series [2] concerns HT-29. Nature of the series: MTT assay, cell viability. It counts as cell-based. The settings on record: Homo sapiens; HT-29, Colorectal, 72 hours; read-out: IC50 (μM, Mean ± SD). As to the method: as §1, §2
The subject of series [3] is Hep3B. Put plainly: MTT assay, cell viability. It counts as cell-based. The settings on record: 5 uM, 72 hours. Here is the method: as §1, §2
Series [4] has as its system MOLT-4. Nature of the series: MTT assay, cell viability. It counts as cell-based. The settings on record: Homo sapiens; MOLT-4, ALL, 72 hours; read-out: IC50 (μM, Mean ± SD). Here is the method: as §1, §2
The subject of series [5] is PLC/PRF/5. Put plainly: MTT assay, cell viability. It counts as cell-based. The conditions noted are these: PLC5, 5 uM, 72 hours. Here is the method: as §1, §2
The test system of series [6] is RT-112. Put plainly: MTT assay, cell viability. The conditions noted are these: 72 hours. It counts as cell-based. As to the method:
as §1, §2

Series [7] has as its system SNU-16. Nature of the series: MTT assay, cell viability. It counts as cell-based. The conditions noted are these: 72 hours. As to the method:
as §1, §2

In series [8] the test system is HUVEC. Put plainly: MTT assay, viability of normal cells. It counts as cell-based, Human. The settings on record: 72 hours, FIG. 1B. Here is the method:
Cell viability was assessed the MTT assay. […] Data are expressed as means±S.D. (***P<0.001 compares to control group).
as §1
Cells were seeded in 96-well plates (5,000 cells/well) and incubated overnight for attachment, and were then treated with indicated agents in 10% FBS-supplemented medium for 72 hours. […] After removal of medium, the cells were lysed with 100 μL per well dimethyl sulfoxide (DMSO), and absorbance at 550 nm was measured with microplate reader. The relative cell viability (%) was expressed as a percentage relative to a DMSO control cells.

The subject of series [9] is RT-112 cells. Nature of the series: Western blot of G0/G1 regulatory proteins. It counts as cell-based. The settings on record: 24 h, FIG. 3C. Here is the method:
C. […] Apoptosis was assessed via detection of cleaved caspase-3 and PARP.
We observed that genes associated with cell cycle progression were decreased in MPT0L145-treated cells. […] This phenomenon was also observed in the cells treated with BGJ-398 (FIG. 3A). […] Next, we examined expression of G0/G1 regulatory proteins via western blot. […] The possibility of MPT0L145-induced apoptosis was further eliminated by examining cleavage of caspase-3 and its substrate, PARP, in 72 h, compared with paclitaxel (FIG. 3D).
In general terms: A western blot detects proteins with antibodies after separation by electrophoresis.

Series [10] concerns the target T1, PIK3C2B (Homo sapiens, UniProt O00750).
T1 construct: made in house; host or cells: E. coli BL21-derived host (T7 phage) or HEK-293
Nature of the series: Lipid kinase binding assay (Kd). Here is the method:
(§3) Kinase assays. For most assays, kinase-tagged T7 phage strains were prepared in an E. coli host derived from the BL21 strain. E. coli were grown to log-phase and infected with T7 phage and incubated with shaking at 32° C. until lysis. The lysates were centrifuged and filtered to remove cell debris. The remaining kinases were produced in HEK-293 cells and subsequently tagged with DNA for qPCR detection. […] The liganded beads were blocked with excess biotin and washed with blocking buffer (SeaBlock (Pierce), 1% BSA, 0.05% Tween 20, 1 mM DTT) to remove unbound ligand and to reduce non-specific binding. […] All reactions were performed in polystyrene 96-well plates in a final volume of 0.135 ml. […] The kinase concentration in the eluates was measured by qPCR.
(§4) An 11-point 3-fold serial dilution of each test compound was prepared in 100% DMSO at 100× final test concentration and subsequently diluted to 1× in the assay (final DMSO concentration=1%). Most Kds were determined using a compound top concentration=30,000 nM.
(§5) Binding constants (Kds) were calculated with a standard dose-response curve using the Hill equation: […]
(§6) The Hill Slope was set to −1. Curves were fitted using a non-linear least square fit with the Levenberg-Marquardt algorithm.

Series [11] deals with T2, PIK3C2G (Homo sapiens, UniProt O75747).
T2 construct: made in house; host or cells: E. coli BL21-derived host (T7 phage) or HEK-293
Put plainly: Lipid kinase binding assay (Kd). As to the method:
as §3, §4, §5, §6

The target in series [12] is T3, PIK3C3 (Homo sapiens, UniProt Q8NEB9).
T3 construct: made in house; host or cells: E. coli BL21-derived host (T7 phage) or HEK-293
Nature of the series: Lipid kinase binding assay (Kd). Here is the method: as §3, §4, §5, §6

Series [13] concerns the target T4, PIK3CB (Homo sapiens, UniProt P42338).
T4 construct: made in house; host or cells: E. coli BL21-derived host (T7 phage) or HEK-293
Put plainly: Lipid kinase binding assay (Kd). Here is the method: as §3, §4, §5, §6

The target in series [14] is T5, PIK3CD (Homo sapiens, UniProt O00329).
T5 construct: made in house; host or cells: E. coli BL21-derived host (T7 phage) or HEK-293
Nature of the series: Lipid kinase binding assay (Kd). As to the method:
as §3, §4, §5, §6

For series [15], the target named is T6, PIKFYVE (Homo sapiens, UniProt Q9Y2I7).
T6 construct: made in house; host or cells: E. coli BL21-derived host (T7 phage) or HEK-293
Nature of the series: Lipid kinase binding assay (Kd). Here is the method: as §3, §4, §5, §6

Series [16] concerns the target T7, PIP5K1A (Homo sapiens, UniProt Q99755).
T7 construct: made in house; host or cells: E. coli BL21-derived host (T7 phage) or HEK-293
Put plainly: Lipid kinase binding assay (Kd). As to the method:
as §3, §4, §5, §6

In series [17] the target is T8, PIP5K1C (Homo sapiens, UniProt O60331).
T8 construct: made in house; host or cells: E. coli BL21-derived host (T7 phage) or HEK-293
Put plainly: Lipid kinase binding assay (Kd). As to the method:
as §3, §4, §5, §6

The target of series [18] is T9, PIP5K2B (Homo sapiens, UniProt P78356).
T9 construct: made in house; host or cells: E. coli BL21-derived host (T7 phage) or HEK-293
Nature of the series: Lipid kinase binding assay (Kd). As to the method:
as §3, §4, §5, §6

The target in series [19] is T10, PIP5K2C (Homo sapiens, UniProt Q8TBX8).
T10 construct: made in house; host or cells: E. coli BL21-derived host (T7 phage) or HEK-293
Nature of the series: Lipid kinase binding assay (Kd). Here is the method:
as §3, §4, §5, §6

For series [20], the system named is RT-112 tumor xenografts. The conditions noted are these: for Tumor growth inhibition (%): i.p., nude mice.
Experimental: Eight-week-old female athymic nude mice were group-housed in the TMU Laboratory Animal Center (Taipei, Taiwan) under conditions of constant photoperiod (12 h light/12 h dark at 21-0023° C. and 60-85% humidity) with ad libitum access to sterilized food and water. […] Tumors were measured weekly using calipers. Tumor volume (mm3) was calculated from w2×½ (w=width, 1=length in mm of the tumor).

Read-outs that look alike come from different tables or passages of the source.

T7 sequence (Q99755 whole entry): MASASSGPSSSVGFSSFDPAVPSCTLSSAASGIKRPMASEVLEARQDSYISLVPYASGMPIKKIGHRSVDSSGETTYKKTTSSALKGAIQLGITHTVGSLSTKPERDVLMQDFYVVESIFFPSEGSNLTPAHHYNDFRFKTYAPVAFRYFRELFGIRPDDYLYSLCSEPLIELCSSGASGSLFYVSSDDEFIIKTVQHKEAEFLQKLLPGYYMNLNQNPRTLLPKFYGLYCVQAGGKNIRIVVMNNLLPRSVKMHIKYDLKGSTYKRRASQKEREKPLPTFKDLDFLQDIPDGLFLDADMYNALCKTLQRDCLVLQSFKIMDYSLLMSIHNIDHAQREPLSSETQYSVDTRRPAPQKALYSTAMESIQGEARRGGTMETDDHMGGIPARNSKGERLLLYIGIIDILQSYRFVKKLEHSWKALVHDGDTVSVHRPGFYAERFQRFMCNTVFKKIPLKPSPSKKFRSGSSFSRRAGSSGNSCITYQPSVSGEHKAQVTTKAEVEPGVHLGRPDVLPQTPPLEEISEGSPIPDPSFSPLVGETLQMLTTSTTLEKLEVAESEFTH
T8 sequence (O60331 whole entry): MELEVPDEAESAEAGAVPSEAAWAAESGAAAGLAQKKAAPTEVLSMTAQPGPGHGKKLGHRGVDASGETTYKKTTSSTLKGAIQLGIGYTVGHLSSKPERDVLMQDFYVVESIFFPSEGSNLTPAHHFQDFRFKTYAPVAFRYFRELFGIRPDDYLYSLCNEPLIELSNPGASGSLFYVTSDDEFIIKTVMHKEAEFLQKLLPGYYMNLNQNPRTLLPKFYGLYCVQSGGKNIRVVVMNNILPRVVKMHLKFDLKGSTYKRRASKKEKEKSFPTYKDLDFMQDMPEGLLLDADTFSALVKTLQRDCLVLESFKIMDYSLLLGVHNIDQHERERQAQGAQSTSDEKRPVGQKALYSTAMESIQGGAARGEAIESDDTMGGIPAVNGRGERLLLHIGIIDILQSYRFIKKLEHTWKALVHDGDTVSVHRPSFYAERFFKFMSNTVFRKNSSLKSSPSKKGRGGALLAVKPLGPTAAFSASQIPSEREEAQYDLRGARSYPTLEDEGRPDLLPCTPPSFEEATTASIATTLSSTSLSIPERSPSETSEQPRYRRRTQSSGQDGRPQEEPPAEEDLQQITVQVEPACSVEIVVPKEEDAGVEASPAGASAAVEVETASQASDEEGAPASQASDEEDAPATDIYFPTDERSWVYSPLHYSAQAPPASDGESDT
T6 sequence (Q9Y2I7 whole entry): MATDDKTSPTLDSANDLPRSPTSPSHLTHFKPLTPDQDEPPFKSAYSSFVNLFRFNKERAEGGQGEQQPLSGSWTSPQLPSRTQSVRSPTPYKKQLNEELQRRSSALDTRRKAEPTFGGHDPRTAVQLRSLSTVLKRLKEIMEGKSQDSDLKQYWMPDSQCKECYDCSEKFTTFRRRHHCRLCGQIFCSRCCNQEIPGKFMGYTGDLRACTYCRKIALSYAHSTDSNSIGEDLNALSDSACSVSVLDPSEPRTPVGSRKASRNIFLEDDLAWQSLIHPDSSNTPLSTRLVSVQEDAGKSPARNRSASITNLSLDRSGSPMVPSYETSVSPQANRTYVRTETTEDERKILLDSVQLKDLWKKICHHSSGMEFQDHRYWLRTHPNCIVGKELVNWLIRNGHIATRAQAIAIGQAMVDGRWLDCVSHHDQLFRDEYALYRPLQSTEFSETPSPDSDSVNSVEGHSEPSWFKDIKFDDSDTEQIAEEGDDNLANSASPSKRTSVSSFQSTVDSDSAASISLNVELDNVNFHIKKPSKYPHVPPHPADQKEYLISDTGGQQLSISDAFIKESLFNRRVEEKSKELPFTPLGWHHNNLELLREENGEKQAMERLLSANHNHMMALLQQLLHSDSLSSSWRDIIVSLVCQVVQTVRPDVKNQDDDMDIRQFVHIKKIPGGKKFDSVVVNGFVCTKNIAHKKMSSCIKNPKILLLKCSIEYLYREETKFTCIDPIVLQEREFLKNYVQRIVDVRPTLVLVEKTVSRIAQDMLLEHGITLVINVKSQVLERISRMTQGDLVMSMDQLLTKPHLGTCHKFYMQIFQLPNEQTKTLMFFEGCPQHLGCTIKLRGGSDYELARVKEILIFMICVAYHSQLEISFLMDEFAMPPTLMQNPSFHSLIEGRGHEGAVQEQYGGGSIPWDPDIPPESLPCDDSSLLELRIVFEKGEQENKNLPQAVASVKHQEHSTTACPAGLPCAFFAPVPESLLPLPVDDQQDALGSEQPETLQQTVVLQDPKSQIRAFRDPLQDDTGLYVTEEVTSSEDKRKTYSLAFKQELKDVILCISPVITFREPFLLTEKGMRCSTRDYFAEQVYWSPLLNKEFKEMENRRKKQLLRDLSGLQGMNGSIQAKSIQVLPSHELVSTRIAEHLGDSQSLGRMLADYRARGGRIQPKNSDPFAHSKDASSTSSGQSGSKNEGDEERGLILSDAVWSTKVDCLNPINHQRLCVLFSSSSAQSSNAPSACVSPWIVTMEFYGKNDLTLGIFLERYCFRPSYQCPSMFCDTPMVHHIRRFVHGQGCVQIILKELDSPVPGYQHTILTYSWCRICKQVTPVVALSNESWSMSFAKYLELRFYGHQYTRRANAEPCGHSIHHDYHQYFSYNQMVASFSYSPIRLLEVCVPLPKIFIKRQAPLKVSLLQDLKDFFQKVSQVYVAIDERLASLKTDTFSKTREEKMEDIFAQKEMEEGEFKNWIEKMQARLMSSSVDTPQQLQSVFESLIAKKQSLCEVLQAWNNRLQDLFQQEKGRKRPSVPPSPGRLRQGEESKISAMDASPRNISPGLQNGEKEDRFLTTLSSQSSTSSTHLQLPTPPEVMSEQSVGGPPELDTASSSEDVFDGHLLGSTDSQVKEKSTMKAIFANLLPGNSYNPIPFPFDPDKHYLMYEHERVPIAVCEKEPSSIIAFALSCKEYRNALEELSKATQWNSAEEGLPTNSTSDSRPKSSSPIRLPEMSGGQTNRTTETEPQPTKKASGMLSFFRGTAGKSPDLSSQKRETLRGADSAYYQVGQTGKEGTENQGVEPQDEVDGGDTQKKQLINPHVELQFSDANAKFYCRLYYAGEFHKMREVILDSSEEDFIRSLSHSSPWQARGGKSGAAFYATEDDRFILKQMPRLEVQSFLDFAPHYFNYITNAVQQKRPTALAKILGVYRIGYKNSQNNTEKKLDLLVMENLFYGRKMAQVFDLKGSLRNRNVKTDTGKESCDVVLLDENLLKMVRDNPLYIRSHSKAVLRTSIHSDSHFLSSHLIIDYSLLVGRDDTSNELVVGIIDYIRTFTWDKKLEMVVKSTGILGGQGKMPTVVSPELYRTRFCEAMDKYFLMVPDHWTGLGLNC
T10 sequence (Q8TBX8 whole entry): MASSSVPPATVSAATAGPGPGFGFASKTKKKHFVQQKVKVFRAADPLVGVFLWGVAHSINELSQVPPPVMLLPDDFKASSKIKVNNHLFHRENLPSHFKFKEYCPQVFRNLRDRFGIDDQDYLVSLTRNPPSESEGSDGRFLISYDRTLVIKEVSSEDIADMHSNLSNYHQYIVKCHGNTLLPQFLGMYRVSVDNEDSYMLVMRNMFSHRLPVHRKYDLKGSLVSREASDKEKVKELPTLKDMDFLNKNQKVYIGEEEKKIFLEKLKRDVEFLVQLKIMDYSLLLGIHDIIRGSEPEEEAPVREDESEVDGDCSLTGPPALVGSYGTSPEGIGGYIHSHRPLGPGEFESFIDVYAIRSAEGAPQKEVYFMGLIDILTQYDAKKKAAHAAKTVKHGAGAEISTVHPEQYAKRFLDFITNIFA
T4 sequence (P42338 whole entry): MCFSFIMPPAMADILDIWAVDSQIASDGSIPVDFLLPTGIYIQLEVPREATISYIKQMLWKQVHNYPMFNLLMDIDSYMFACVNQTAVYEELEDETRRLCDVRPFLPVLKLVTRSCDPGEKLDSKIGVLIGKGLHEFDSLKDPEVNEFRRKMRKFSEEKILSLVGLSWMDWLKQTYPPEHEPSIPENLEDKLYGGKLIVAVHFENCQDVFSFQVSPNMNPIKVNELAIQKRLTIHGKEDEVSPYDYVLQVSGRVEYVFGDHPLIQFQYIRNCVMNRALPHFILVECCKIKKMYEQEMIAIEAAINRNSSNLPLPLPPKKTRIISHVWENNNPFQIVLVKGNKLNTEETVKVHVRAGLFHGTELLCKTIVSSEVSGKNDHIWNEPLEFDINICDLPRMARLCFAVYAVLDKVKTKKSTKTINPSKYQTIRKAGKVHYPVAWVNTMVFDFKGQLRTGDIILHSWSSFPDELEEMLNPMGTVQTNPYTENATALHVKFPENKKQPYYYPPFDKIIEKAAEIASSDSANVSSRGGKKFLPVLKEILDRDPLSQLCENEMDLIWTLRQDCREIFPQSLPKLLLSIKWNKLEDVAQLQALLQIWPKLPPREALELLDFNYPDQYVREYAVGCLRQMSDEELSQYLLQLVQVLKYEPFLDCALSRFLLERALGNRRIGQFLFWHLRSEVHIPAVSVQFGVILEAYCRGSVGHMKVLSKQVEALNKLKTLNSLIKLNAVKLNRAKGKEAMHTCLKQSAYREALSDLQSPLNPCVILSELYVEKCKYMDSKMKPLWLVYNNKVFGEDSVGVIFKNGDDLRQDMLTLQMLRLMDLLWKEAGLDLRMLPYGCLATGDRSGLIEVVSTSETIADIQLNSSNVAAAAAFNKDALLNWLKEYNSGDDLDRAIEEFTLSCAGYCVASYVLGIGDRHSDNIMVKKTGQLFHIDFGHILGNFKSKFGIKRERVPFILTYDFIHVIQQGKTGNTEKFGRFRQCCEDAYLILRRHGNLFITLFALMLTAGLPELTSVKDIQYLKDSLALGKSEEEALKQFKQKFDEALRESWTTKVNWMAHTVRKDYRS

With `CCN1CCN(c2ccc(Nc3ncnc(N(C)C(=O)Nc4c(Cl)c(OC)c(Cl)c(OC)c4Cl)n3)cc2)CC1` [MPT0L145, 1-(4-((4-(4-ethylpiperazin-1-yl)phenyl)amino)-1,3,5-triazin-2-yl)-1-methyl-3-(2,4,6-trichloro-3,5-dimethoxyphenyl)urea], the half-maximal inhibitory concentration (IC50) in [1] was determined as 4.72 ± 1.46 µM; in [2], 2.49 ± 0.29 µM; in series [4], 3.7 ± 0.2 µM. For the same compound, the “Viability (% of control cells) Hep3B (5 uM) Mean” value in [3] is 66.2 % of control cells. In series [5], the “Viability (% of control cells) PLC5 (5 uM) Mean” value was 20.6 % of control cells. For the same compound, the “Viability (% of control cells) RT-112 (5 uM) Mean” value in series [6] (RT-112, 5 uM) is on record as 33.4 % of control cells. Also, the “Viability (% of control cells) RT-112 (10 uM) Mean” value in series [6] (RT-112, 10 uM) is on record as 8.5 % of control cells. Also, in series [7], the “Viability (% of control cells) SNU-16 (5 uM) Mean” value is 36.9 % of control cells. In addition, the “toxicity in normal cells (HUVEC) compared with BGJ-398” value in [8] was “significantly lower toxicity”. For the same compound, the “cyclin E levels” value in series [9] is given as “marked decrease”. Further, in series [9], the p16 level result was “slight increase”. Further, the Kd is 1 µM in series [10]; more than 10 µM in series [11]; 0.00053 µM in series [12]; more than 10 µM in series [13]; more than 10 µM in [14]; 2.6 µM in series [15]. The Kd in series [16], in series [17], in [18] and in series [19] was more than 10 µM throughout. Also, the “Tumor growth inhibition (%)” value amounted to 61.4% in series [20] (5 mg/kg/d) and 74.6% in series [20] (10 mg/kg/d). Further, the tumor growth result in series [20] (5 and 10 mg/kg/d i.p., dose-dependent) was “significantly suppressed tumor growth”.

Usually IC50 stands for the concentration needed to halve the response being measured. As usually defined, the Kd is the concentration at which binding is half-saturated. A higher Kd goes with weaker binding.
